Legend:
iPS cells = assay: Viable iPS cell number with purified albumin re-carrying fatty acid (Example 4, FIG. 4); format: cell-based, human; settings: fatty acid re-adsorbed to albumin, 1 week
Procedure: Proliferative effect of various test compounds on induced pluripotent stem cell (iPS cell) was evaluated. As the iPS cell, 201B7 strain purchased from iPS Academia Japan, Inc. was used. Cell culture was performed under conditions of 5% CO2/37° C. and using a culture vessel (Nippon Becton Dickinson Company, Ltd., Falconculture petri dish or Falconculture plate) coated with a basal membrane matrix.
Various test compounds were added at given concentrations to a medium of “E8” composition (disclosed in Nature Methods, 2011, 8, 424-429, which is incorporated herein by reference in its entirety) currently considered to be the minimum composition for cultivating human pluripotent stem cells, and used for culture, from which the effect was studied.
The solution was shaken at 37° C. for 7 hours, left standing at 4° C. overnight, and filtered with a 0.22 μm syringe filter. […] The mixture was added to a medium such that the final concentration of albumin was 2.6 g/L.
The final concentration in and the amount of addition to the medium are also the same.
Using the medium produced as mentioned above, the influence of each fatty acid on the proliferation of iPS cells was studied. A 6-well plate coated with a fragment containing an active domain of laminin 511 at 5 μg/well (iMatrix-511 (Nippi, Incorporated)) as a basal membrane matrix was used. iPS cells were single-cell seeded at 13,000 cells/well and cultured for 1 week. Y-27632 (NACALAI TESQUE, INC.: 08945-84) was added at a final concentration of 10 μM only to a medium to be used for seeding. As a positive control, iPS cells were cultured using an albumin free of re-adsorption of fatty acid, i.e., albumin after a fatty acid removal treatment.
The cells were detached from each well by TrypLE Select (Life Technologies: 12563-011), and the number of the viable cells was measured.

stem cells = settings: WO 2013/006675; cited from earlier work
[1] = final concentration in medium 28 μM
[2] = final concentration in medium 57 μM

Row | Structure (SMILES) | effect on proliferation of iPS cells (number of viable cells) (iPS cells; [1]) | effect on proliferation of iPS cells (number of viable cells) (iPS cells; [2]) | effect on culture of stem cells (stem cells)
1 | CCCCCCCCCCCCCCCCCC(=O)O [stearic acid] | the cells died | the cells died | 
2 | CCCCC/C=C\C/C=C\C/C=C\C/C=C\CCCC(=O)O [arachidonic acid] | the cells died | the cells died | 
3 | CCCCCCCCCCCCCCCC(=O)O [palmitic acid] | the cells died | the cells died | 
4 | CCCCC/C=C\C/C=C\CCCCCCCC(=O)O [linoleic acid] | markedly suppressed | the cells died | 
5 | CCCCCCCC(=O)O [octanoic acid] |  |  | harmful
6 | CCCCCCCC/C=C\CCCCCCCC(=O)O [oleic acid] | smaller than that of the positive control | smaller than that of the positive control | 

Source: US11859205B2, “Medium for culturing stem cells” (AJINOMOTO CO., INC., priority 2013, dated 2024)
